From patent US20250043353A1, “BIOMARKERS OF RESPONSE TO SELECTIVE INHIBITORS OF AURORA A KINASE” (Millennium Pharmaceuticals, Inc., priority 2015, published 2025)

Experiments:
[1] = test system: advanced solid tumor types; details: patients with relapsed/refractory BC, SCLC, NSCLC, HNSCC, GE adenocarcinoma; activity in all except NSCLC; cited from earlier work
[2] = test system: advanced solid tumor types; assay: association of somatically mutated genes/pathways (whole exome sequencing) with response to alisertib in trial patients; format: in vivo, human; details: for est: HR (hazard ratio) for progression free survival (PFS): adjusted by baseline, stratified by indication; for est: mean % best tumor size change between mutant and WT groups: all five tumor types, adjusted by tumor indication and tumor baseline size
Excerpt: The best tumor size change and progression-free survival (PFS) of the patients were used as the efficacy response endpoints.
The genomic DNA was isolated from 47 patients with 2-4 slides of 5 micron thickness from archived tumor biopsies with Qiagen FFPE kit (Qiagen, Germany). Genomic DNA from blood samples were extracted utilizing blood DNA kit (Qiagen, Germany). Tumor-normal (blood) paired DNAs were sequenced by whole exome DNA sequencing employing Agilent SureSelect exome capture and Illumina Hi-Seq™ technologies.
The downstream analysis was designed to identify potential biomarkers predictive of drug response using the high-confidence mutations obtained from the middle-stream analysis. A linear regression model and Cox proportional hazard model were used for best tumor size change and PFS as endpoints, respectively. Tumor type was considered as a covariate in both models to adjust its confounding effect. In case of linear regression for best tumor size change as an endpoint, baseline tumor size was added as an additional covariate since baseline tumor size is […] correlated with the endpoint. In the following linear regression equation, y=β0+β1x+βc1c1+βc2c2+ε, y, x, c1, c2, and c represent the best tumor size change, a single gene mutation status, tumor type, baseline tumor size, and random error, respectively. When the gene harbors high-confidence mutation(s), x becomes 1; otherwise, it is 0. The 1st covariate c1 was converted into five binary variables to represent the five different tumor types and the 2nd covariate c2 is a continuous variable. As a result, the coefficient fi indicates the contribution of the mutated gene to sensitivity or resistance to alisertib treatment after adjusting the potential confounding effects of the covariates. A p-value was computed for testing the null hypothesis β1=0. Since multiple genes were tested using these models and the p-values were corrected for multiple hypothesis testing using false discovery rate (FDR).
A similar approach was used for the pathway association analysis. A pathway can be defined as a group of genes that are known to be interacting together for a common biological function. […] Two types of statistical tests were selected in order to test the degree of association of mutations on the pathway level and alisertib treatment outcome, particularly best tumor size change. […] A linear regression model was built using this binary variable as an independent variable and tumor type and baseline tumor size were used as covariates, similar to the equation used for gene-level association. Secondly, sequence kernel association tests (SKAT) were run to account for cases where individual mutated genes in a pathway contribute differently to drug sensitivity or resistance. […] As the two methods, linear regression and SKAT, provide different angles in terms of association between pathways and alisertib response, the smaller p-value (the best of the two tests, BOT from here on) was selected as a representative p-value for each pathway. The p-values of the pathways were subjected to multiplicity adjustments in order to control the type I error of the statistical tests.
The Cox proportional hazard models were used to see potential association between mutated genes/pathways and progression-free survival (PFS).
For single gene-level association, the Benjamini & Hochberg (BH) method was used to compute FDR (also known as q-value). For pathway-level association, as multiple statistical association analyses (linear regression, SKAT and BOT) were conducted for each pathway, and pathways are often correlated through commonly present genes, multiplicity adjustment becomes more complicated. To address these challenges, a re-sampling-based multiplicity adjustment was implemented. The null distributions of p-values from pathway association tests were simulated using parametric bootstrapping. […]

In the case of `COc1cc(Nc2ncc3c(n2)-c2ccc(Cl)cc2C(c2c(F)cccc2OC)=NC3)ccc1C(=O)O` [alisertib, 4-{[9-chloro-7-(2-fluoro-6-methoxyphenyl)-5H-pyrimido[5,4-d][2]benzazepin-2-yl]amino}-2-methoxybenzoic acid], the “single agent antitumor activity” value [1] is given as “clinically meaningful antitumor activity in four of the five solid tumor types”, the “est: HR (hazard ratio) for progression free survival (PFS)” value ([2]; EP300 mutated vs WT) is given as 0.271 and the “est: mean % best tumor size change between mutant and WT groups” value ([2]; FAT1 mutated) is given as −39.70%. The “est: mean % best tumor size change between mutant and WT groups” value ([2]; FBXW7 mutated) was 41.96%, the “est: HR (hazard ratio) for progression free survival (PFS)” value ([2]; MLL3 mutated vs WT) was 0.129 and the “est: mean % best tumor size change between mutant and WT groups” value ([2]; MLL3 mutated) was −28.84%. For the same molecule, the “response (best tumor size change) of patients with mutated pathway versus wild type” value ([2]; patients with mutated WNT or Hippo signaling pathways vs WT) was “respond more favorably”.
